Our source for the IC50 values is US20260347372A1, “SMALL MOLECULE INHIBITORS OF KRAS G12D MUTANT” (MERCK SHARP & DOHME LLC, priority 2023, published 2026).

As a reminder, the IC50 is the point on the concentration scale where inhibition reaches its midpoint.

The target in test [1] is T1, KRAS G12D (Homo sapiens, UniProt P01116, G12D). Description: SOS-catalyzed nucleotide exchange assay, KRAS G12D (Procedure A). To be noted: guanine nucleotide exchange (GNE). The class given is biochemical. The gist of the method:
(§1)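 60 min cpd preinc. w/ RAS–Bodipy-GDP–Tb-SA complex; + hSOS/GTP (3 mM final), RT. G12C 3 nM RAS/40 nM SOS; WT, G12D 1 nM/40 nM; 60 min rxn. G13D 1.25 nM, no SOS, 30 min rxn. HEPES pH 7.5, 10 mM MgCl2. Ratio 520/495, norm. to DMSO/max-inhibitor ctrls.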
Target sequence in this assay (P01116 with tags, fused parts or gaps isoform P01116-2 G12D): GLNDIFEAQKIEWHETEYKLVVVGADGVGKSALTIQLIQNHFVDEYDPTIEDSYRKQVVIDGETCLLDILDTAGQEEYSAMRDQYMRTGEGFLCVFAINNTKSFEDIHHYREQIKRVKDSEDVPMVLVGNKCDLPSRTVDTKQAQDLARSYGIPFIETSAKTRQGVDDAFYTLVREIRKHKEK

Test [2] has as its target T2, KRAS WT (Homo sapiens, UniProt P01116). Put plainly: SOS-catalyzed nucleotide exchange assay, KRAS WT (Procedure A). The class given is biochemical. Conditions: GNE. The gist of the method:
as §1
Target sequence in this assay (P01116 with tags, fused parts or gaps isoform P01116-2): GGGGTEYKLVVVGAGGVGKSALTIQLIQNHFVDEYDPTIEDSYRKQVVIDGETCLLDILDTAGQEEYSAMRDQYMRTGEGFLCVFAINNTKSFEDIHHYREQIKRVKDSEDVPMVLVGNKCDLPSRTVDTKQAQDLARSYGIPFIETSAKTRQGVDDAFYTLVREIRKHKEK

In test [3] the target is KRAS G12C (Homo sapiens, UniProt P01116, C118S/C51S/C80L/G12C). Description: SOS-catalyzed nucleotide exchange assay, KRAS G12C (Procedure A). The class given is biochemical. Conditions: GNE. An outline of the steps:
as §1

The target in test [4] is T3, KRAS G12V (Homo sapiens, UniProt P01116, G12V). Put plainly: SOS-catalyzed nucleotide exchange assay, KRAS G12V (Procedure A). The class given is biochemical. To be noted: GNE. The gist of the method:
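Biotinylated KRAS G12V was loaded with Bodipy-GDP alongside Terbium-streptavidin to form a TR-FRET complex, which was preincubated with compounds for 60 minutes in 384-well plates. Human SOS protein and unlabeled GTP were then added for 90 minutes, giving final concentrations of 1.25 nM KRAS-G12V, 160 nM SOS and 3 mM GTP. The 520/495 nm emission ratio was read on an Envision.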
Target sequence in this assay (P01116 with tags, fused parts or gaps isoform P01116-2 G12V): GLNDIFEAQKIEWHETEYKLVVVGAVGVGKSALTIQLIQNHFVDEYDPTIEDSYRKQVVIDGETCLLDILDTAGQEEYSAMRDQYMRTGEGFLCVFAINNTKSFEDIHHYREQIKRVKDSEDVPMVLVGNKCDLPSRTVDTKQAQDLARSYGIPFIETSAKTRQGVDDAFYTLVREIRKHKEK

Test [5] has as its target KRAS G13D (Homo sapiens, UniProt P01116, G13D). Put plainly: SOS-catalyzed nucleotide exchange assay, KRAS G13D (Procedure A). To be noted: GNE. The class given is biochemical. The gist of the method: as §1
Test [6] has as its target HRAS (Homo sapiens, UniProt P01112). Put plainly: SOS-catalyzed nucleotide exchange assay, HRAS (Procedure A). The class given is biochemical. Conditions: GNE. The gist of the method:
as §1

Test [7] addresses NRAS (Homo sapiens, UniProt P01111). Description: SOS-catalyzed nucleotide exchange assay, NRAS (Procedure A). The class given is biochemical. Conditions: GNE. An outline of the steps:
as §1

Test [8] addresses T4, PANC08.13 cells (Homo sapiens, UniProt P01116, G12D).
T4 construct: p-ERK/total ERK AlphaSureFire read-out
Description: Cellular phospho-ERK assay, PANC08.13 cells (KRAS G12D). The class given is cell-based. To be noted: 2 hours, read-out: PANCO 813 pERK IC50. The gist of the method: (§2)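 Compound was titrated 10-point in 3-fold steps (top 30 μM) on KRAS G12D homozygous pancreatic lines PANC08.13 and AsPC-1 for 2 h at 37 °C. The p-ERK/total ERK ratio was measured by multiplex AlphaLISA SureFire and fitted with a 4-parameter logistic model to give IC50.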

For test [9], the target named is T5, AsPC-1 cells (Homo sapiens, UniProt P01116, G12D).
T5 construct: p-ERK/total ERK AlphaSureFire read-out
Put plainly: Cellular phospho-ERK assay, AsPC-1 cells (KRAS G12D). To be noted: 2 hours, read-out: AsPC1 pERK IC50. The class given is cell-based. An outline of the steps:
as §2

Test [10] concerns the target T6, KRAS G12C (Homo sapiens, UniProt P01116, G12C).
T6 construct: KRAS G12C (amino acids 1-169, N-terminal His-tag); made in house; host or cells: E. coli
Description: SOS-catalyzed nucleotide exchange assay, KRAS G12C (Procedure B; Example 14). The class given is biochemical. Conditions: 1 hour compound incubation, SOS1 and GMPPNP 30 minutes, read-out: KRAS G12C GNE IC50. Here is the method:
(§3) Procedure for SOS-Catalyzed Nucleotide Exchange Assay for KRAS-G12C/D/V/WT (Procedure B)
(§4) Recombinant KRAS G12C (amino acids 1-169, SEQ ID NO:9), KRAS G12D (amino acids 1-169, SEQ ID NO:10), KRAS G12V (amino acids 1-169, SEQ ID NO:11), KRAS WT (amino acids 1-169, SEQ ID NO:12) and SOS1 (amino acids 564-1049, SEQ ID NO:13) proteins were expressed in E. coli and purified by affinity chromatography. To prepare each BODIPY™ FL GDP-bound KRAS protein, 50 μM KRAS proteins were incubated with 0.5 mM BODIPY™ FL GDP (Invitrogen, G22360) in a loading buffer (20 mM Tris-HCl pH 7.5, 50 mM NaCl, 1 mM DTT and 2.5 mM EDTA) for 1 hour on ice. After the incubation, MgCl2 was added to a final concentration of 10 mM, followed by an incubation at room temperature for 30 minutes. The mixtures were allowed to pass through a NAP-5 column to remove free nucleotides and purified BODIPY™ FL GDP-bound KRAS G12C, G12D, G12V and WT proteins were used for compound evaluation.
(§5) The inhibitory activity of compounds on recombinant KRAS is measured by the displacement of the bound BODIPY™ GDP. […] Displacement of BODIPY™ FL GDP by Guanosine-5′-[(β,γ)-imido]triphosphate, Tetralithium salt (GMPPNP) was measured by calculating the ratio of fluorescence intensities of BODIPY™ FL before and after the exchange reaction. […] Dose response curves were analyzed using a 4-parameter logistic model to calculate IC50 values. […]

The target of test [11] is T2, KRAS WT. Description: SOS-catalyzed nucleotide exchange assay, KRAS WT (Procedure B; Example 14). The class given is biochemical. The arrangement: KRAS WT (amino acids 1-169, N-terminal His-tag); made in house; host or cells: E. coli. Conditions: 1 hour compound incubation, SOS1 and GMPPNP 30 minutes, read-out: KRAS WT GNE IC50. How it is done:
as §3, §4, §5
Target sequence in this assay (P01116 with tags, fused parts or gaps isoform P01116-2): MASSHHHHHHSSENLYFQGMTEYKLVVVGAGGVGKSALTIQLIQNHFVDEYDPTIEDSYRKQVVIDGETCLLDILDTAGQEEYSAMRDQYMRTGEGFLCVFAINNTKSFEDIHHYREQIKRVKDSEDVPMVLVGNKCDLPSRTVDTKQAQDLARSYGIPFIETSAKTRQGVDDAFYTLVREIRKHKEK

For test [12], the target named is T1, KRAS G12D. Description: SOS-catalyzed nucleotide exchange assay, KRAS G12D (Procedure B; Example 14). The class given is biochemical. Set-up: KRAS G12D (amino acids 1-169, N-terminal His-tag); made in house; host or cells: E. coli. Conditions: 1 hour compound incubation, SOS1 and GMPPNP 30 minutes, read-out: KRAS G12D GNE IC50. Here is the method: as §3, §4, §5
Target sequence in this assay (P01116 with tags, fused parts or gaps isoform P01116-2 G12D): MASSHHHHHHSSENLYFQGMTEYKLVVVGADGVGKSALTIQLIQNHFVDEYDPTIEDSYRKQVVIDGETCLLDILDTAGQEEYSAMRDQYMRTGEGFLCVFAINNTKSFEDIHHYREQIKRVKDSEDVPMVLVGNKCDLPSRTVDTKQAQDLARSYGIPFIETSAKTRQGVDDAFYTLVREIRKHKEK

The target in test [13] is T3, KRAS G12V. Put plainly: SOS-catalyzed nucleotide exchange assay, KRAS G12V (Procedure B; Example 14). To be noted: 1 hour compound incubation, SOS1 and GMPPNP 30 minutes, read-out: KRAS G12V GNE IC50. The class given is biochemical. The arrangement: KRAS G12V (amino acids 1-169, N-terminal His-tag); made in house; host or cells: E. coli. How it is done:
as §3, §4, §5
Target sequence in this assay (P01116 with tags, fused parts or gaps isoform P01116-2 G12V): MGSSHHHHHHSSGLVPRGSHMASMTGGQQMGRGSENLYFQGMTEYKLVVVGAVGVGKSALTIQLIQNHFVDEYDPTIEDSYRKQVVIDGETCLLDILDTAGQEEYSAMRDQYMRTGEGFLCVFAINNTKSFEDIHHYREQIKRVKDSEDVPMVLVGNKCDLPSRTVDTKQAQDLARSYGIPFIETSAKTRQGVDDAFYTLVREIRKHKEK

A value given as a limit tells only on which side of the number the result lay.

T4 sequence (P01116 1-188 isoform P01116-2 G12D): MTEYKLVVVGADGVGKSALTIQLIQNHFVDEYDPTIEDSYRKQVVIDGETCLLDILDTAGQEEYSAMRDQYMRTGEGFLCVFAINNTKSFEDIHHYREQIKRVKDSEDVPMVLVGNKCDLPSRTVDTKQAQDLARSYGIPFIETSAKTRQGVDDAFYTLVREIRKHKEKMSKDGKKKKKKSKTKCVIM
T5 sequence (P01116 1-188 isoform P01116-2 G12D): as above
Sequence of HRAS (P01112 with tags, fused parts or gaps): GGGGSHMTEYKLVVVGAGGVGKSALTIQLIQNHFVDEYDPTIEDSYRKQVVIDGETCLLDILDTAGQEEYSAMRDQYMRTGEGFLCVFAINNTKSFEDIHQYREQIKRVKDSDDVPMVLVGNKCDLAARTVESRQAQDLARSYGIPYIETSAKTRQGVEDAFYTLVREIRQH
Sequence of KRAS G13D (P01116 with tags, fused parts or gaps isoform P01116-2 G13D): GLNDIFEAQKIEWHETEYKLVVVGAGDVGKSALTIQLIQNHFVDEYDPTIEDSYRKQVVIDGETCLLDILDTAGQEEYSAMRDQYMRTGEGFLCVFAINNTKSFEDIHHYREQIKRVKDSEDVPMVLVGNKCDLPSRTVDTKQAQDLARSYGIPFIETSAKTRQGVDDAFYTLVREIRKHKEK
Sequence of NRAS (P01111 with tags, fused parts or gaps): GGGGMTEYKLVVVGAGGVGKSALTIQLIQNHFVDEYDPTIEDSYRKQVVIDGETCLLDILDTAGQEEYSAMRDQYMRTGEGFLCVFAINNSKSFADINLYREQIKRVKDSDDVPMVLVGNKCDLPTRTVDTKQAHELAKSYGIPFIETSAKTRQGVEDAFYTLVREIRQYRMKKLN
Sequence of KRAS G12C (Homo sapiens, UniProt P01116, C118S/C51S/C80L/G12C) (P01116 with tags, fused parts or gaps isoform P01116-2 G12C/C51S/C80L/C118S): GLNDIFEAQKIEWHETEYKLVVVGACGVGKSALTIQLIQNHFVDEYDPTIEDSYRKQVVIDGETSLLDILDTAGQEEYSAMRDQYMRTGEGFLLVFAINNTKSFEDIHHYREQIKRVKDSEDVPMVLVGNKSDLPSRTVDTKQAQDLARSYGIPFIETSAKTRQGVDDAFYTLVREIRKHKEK
T6 sequence (P01116 with tags, fused parts or gaps isoform P01116-2 G12C): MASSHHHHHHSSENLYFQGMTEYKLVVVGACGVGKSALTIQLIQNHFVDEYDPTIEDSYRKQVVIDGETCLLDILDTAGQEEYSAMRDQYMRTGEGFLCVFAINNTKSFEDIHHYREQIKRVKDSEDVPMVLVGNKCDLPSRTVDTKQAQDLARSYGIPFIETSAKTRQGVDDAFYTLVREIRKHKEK

Regarding `C#Cc1c(F)ccc2cc(O)cc(-c3nccc4c5c(N6C[C@H]7CC[C@@H](C6)N7)nc(OC[C@@]67CCCN6C[C@H](F)C7)nc5n(C)c34)c12` [Ex-8, 4-(4-((1R,5S)-3,8-diazabicyclo[3.2.1]octan-3-yl)-2-(((2R,7aS)-2-fluorotetrahydro-1H-pyrrolizin-7a(5H)-yl)methoxy)-9-methyl-9H-pyrido[4′,3′:4,5]pyrrolo[2,3-d]pyrimidin-8-yl)-5-ethynyl-6-fluoronaphthalen-2-ol], the IC50 in [1] was 1.81 nM; in [2], 48.1 nM; in test [3] it was 25.2 nM; in test [4] it was 62.6 nM; in test [5] it was 17.8 nM; in test [6] it was > 11100 nM. The IC50 is > 11100 nM in test [7], 63.8 nM in test [8] and 138 nM in test [9].
Consider `C#Cc1cccc2cccc(-c3nccc4c3sc3nc(OC[C@@]56CCCN5C[C@H](F)C6)nc(N5C[C@H]6CC[C@@H](C5)N6)c34)c12` [Ex-10, 4-((1R,5S)-3,8-diaza-bicyclo[3.2.1]oc-tan-3-yl)-8-(8-ethynylnaphthalen-1-yl)-2-(((2R,7aS)-2-fluoro-tetrahydro-1H-pyrrolizin-7a(5H)-yl)methoxy)pyri-do[4′,3′:4,5]thi-eno[2,3-d]py-rimidine], for which the IC50 in [1] is 7.11 nM; in [2] it was 4930 nM; in test [3], 647 nM; in test [4], 6880 nM; in [5], 604 nM; in test [6], > 11100 nM. The values for the IC50 in [7], in [8] and in [9] were > 11100 nM, 192 nM and 398 nM, respectively.
Turning to `Cc1cc2[nH]ncc2c(-c2nccc3c2sc2nc(OC[C@@]45CCCN4C[C@H](F)C5)nc(N4C[C@H]5CC[C@@H](C4)N5)c23)c1C(F)(F)F` [Ex-12, 4-((1R,5S)-3,8-diazabicyclo[3.2.1]octan-3-yl)-2-(((2R,7aS)-2-fluorotetrahydro-1H-pyrrolizin-7a(5H)-yl)methoxy)-8-(6-methyl-5-(trifluoromethyl)-1H-indazol-4-yl)pyrido[4′,3′:4,5]thieno[2,3-d]pyrimidine], the half-inhibitory concentration (IC50) is 6.41 nM in test [1]; 5810 nM in test [2]; 589 nM in [3]; 2070 nM in [4]; 723 nM in [5]; > 11100 nM in test [6]. Besides, the 50% inhibitory concentration (IC50) is > 11100 nM in test [7], 88.9 nM in test [8] and 200 nM in [9].
In the case of `FC(F)c1c(Cl)cc2[nH]ncc2c1-c1nccc2c1sc1nc(OC[C@@]34CCCN3C[C@H](F)C4)nc(N3C[C@H]4CC[C@@H](C3)N4)c12` [Ex-13, 4-((1R,5S)-3,8-diazabicyclo[3.2.1]octan-3-yl)-8-(6-chloro-5-(difluoromethyl)-1H-indazol-4-yl)-2-(((2R,7aS)-2-fluorotetrahydro-1H-pyrrolizin-7a(5H)-yl)methoxy)pyrido[4′,3′:4,5]thieno [2,3-d]pyrimidine], the half-maximal inhibitory concentration (IC50) was 13.7 nM in test [1]; 9560 nM in [2]; 665 nM in test [3]; 8350 nM in test [4]; 1830 nM in test [5]; > 11100 nM in test [6]. Further, the results for the half-inhibitory concentration (IC50) in [7], in [8] and in test [9] were > 11100 nM, 220 nM and 582 nM, respectively.
Consider `FC(F)c1ccc2[nH]ncc2c1-c1nccc2c1sc1nc(OC[C@@]34CCCN3C[C@H](F)C4)nc(N3C[C@H]4CC[C@@H](C3)N4)c12` [Ex-14, 4-((1R,5S)-3,8-diazabicyclo[3.2.1]octan-3-yl)-8-(5-(difluoromethyl)-1H-indazol-4-yl)-2-(((2R,7aS)-2-fluorotetrahydro-1H-pyrrolizin-7a(5H)-yl)methoxy)pyrido[4′,3′:4,5]thieno [2,3-d]pyrimidine], for which the IC50 in test [10] is > 5000 nM; in test [11] it was > 5000 nM; in test [12] it was 110 nM; in test [13], > 5000 nM.
On to `Cc1cc2[nH]nc(C#N)c2c(-c2nccc3c2sc2nc(OC[C@@]45CCCN4C[C@H](F)C5)nc(N4C[C@H]5CC[C@@H](C4)N5)c23)c1C(F)(F)F` [Ex-19, 4-(4-((1R,5S)-3,8-diazabicy-clo[3.2.1]oc-tan-3-yl)-2-(((2R,7aS)-2-fluoro-tetrahydro-1H-pyrrolizin-7a(5H)-yl)methoxy)pyri-do[4′,3′:4,5]thieno [2,3-d]pyrimidin-- 8-yl)-6-methyl-5-(trifluoromethyl)-- 1H-indazole-3-carbonitrile], for which the 50% inhibitory concentration (IC50) in test [1] is 23.4 nM; in [2] it was 9940 nM; in test [3], 755 nM; in [4], > 11100 nM; in test [5], 1050 nM; in test [6] it was > 11100 nM. The IC50 was > 11100 nM in test [7], 250 nM in [8] and 2200 nM in test [9].
